The NIST ThermoML archive (doi:10.1021/je060411g)

Experiment: molar heat capacity at constant pressure
Settings: 101.33 kPa

CC(C)(C)CO [2,2-dimethyl-1-propanol]
Settings	molar heat capacity at constant pressure [J/K/mol]
6.04 K, Crystal 2, Vacuum adiabatic calorimetry	1.42
6.22 K, Crystal 2, Vacuum adiabatic calorimetry	1.34
6.72 K, Crystal 2, Vacuum adiabatic calorimetry	1.62
6.93 K, Crystal 2, Vacuum adiabatic calorimetry	1.79
7.63 K, Crystal 2, Vacuum adiabatic calorimetry	2.48
7.66 K, Crystal 2, Vacuum adiabatic calorimetry	2.49
8.46 K, Crystal 2, Vacuum adiabatic calorimetry	3.25
8.71 K, Crystal 2, Vacuum adiabatic calorimetry	3.26
9.38 K, Crystal 2, Vacuum adiabatic calorimetry	3.5
9.84 K, Crystal 2, Vacuum adiabatic calorimetry	3.94
10 K, Crystal 2	4.09
10.52 K, Crystal 2, Vacuum adiabatic calorimetry	4.52
11.19 K, Crystal 2, Vacuum adiabatic calorimetry	4.61
11.74 K, Crystal 2, Vacuum adiabatic calorimetry	4.61
12.6 K, Crystal 2, Vacuum adiabatic calorimetry	5.48
12.96 K, Crystal 2, Vacuum adiabatic calorimetry	6.1
13.95 K, Crystal 2, Vacuum adiabatic calorimetry	7.71
14.12 K, Crystal 2, Vacuum adiabatic calorimetry	7.8
15 K, Crystal 2	9
15.22 K, Crystal 2, Vacuum adiabatic calorimetry	9.22
15.26 K, Crystal 2, Vacuum adiabatic calorimetry	9.22
16.54 K, Crystal 2, Vacuum adiabatic calorimetry	10.78
16.63 K, Crystal 2, Vacuum adiabatic calorimetry	10.92
17.89 K, Crystal 2, Vacuum adiabatic calorimetry	12.37
18.17 K, Crystal 2, Vacuum adiabatic calorimetry	12.68
19.28 K, Crystal 2, Vacuum adiabatic calorimetry	14.02
19.75 K, Crystal 2, Vacuum adiabatic calorimetry	14.6
20 K, Crystal 2	14.89
20.7 K, Crystal 2, Vacuum adiabatic calorimetry	15.68
21.36 K, Crystal 2, Vacuum adiabatic calorimetry	16.44
22.16 K, Crystal 2, Vacuum adiabatic calorimetry	17.26
23.02 K, Crystal 2, Vacuum adiabatic calorimetry	18.27
23.65 K, Crystal 2, Vacuum adiabatic calorimetry	18.89
24.72 K, Crystal 2, Vacuum adiabatic calorimetry	20.07
25 K, Crystal 2	20.35
25.17 K, Crystal 2, Vacuum adiabatic calorimetry	20.52
26.45 K, Crystal 2, Vacuum adiabatic calorimetry	21.86
26.71 K, Crystal 2, Vacuum adiabatic calorimetry	22.12
27.26 K, Crystal 2, Vacuum adiabatic calorimetry	22.45
27.45 K, Crystal 2, Vacuum adiabatic calorimetry	22.66
28.26 K, Crystal 2, Vacuum adiabatic calorimetry	23.73
28.44 K, Crystal 2, Vacuum adiabatic calorimetry	23.84
29.84 K, Crystal 2, Vacuum adiabatic calorimetry	25.29
30 K, Crystal 2	25.41
30.14 K, Crystal 2, Vacuum adiabatic calorimetry	25.52
31.75 K, Crystal 2, Vacuum adiabatic calorimetry	26.93
33.36 K, Crystal 2, Vacuum adiabatic calorimetry	28.48
35 K, Crystal 2	29.8
35.01 K, Crystal 2, Vacuum adiabatic calorimetry	29.81
36.67 K, Crystal 2, Vacuum adiabatic calorimetry	31.13
38.35 K, Crystal 2, Vacuum adiabatic calorimetry	32.76
40 K, Crystal 2	33.67
40.05 K, Crystal 2, Vacuum adiabatic calorimetry	33.71
41.77 K, Crystal 2, Vacuum adiabatic calorimetry	34.97
43.5 K, Crystal 2, Vacuum adiabatic calorimetry	36.21
45 K, Crystal 2	37.23
45.25 K, Crystal 2, Vacuum adiabatic calorimetry	37.39
47.01 K, Crystal 2, Vacuum adiabatic calorimetry	38.58
48.78 K, Crystal 2, Vacuum adiabatic calorimetry	39.8
50 K, Crystal 2	40.59
50.56 K, Crystal 2, Vacuum adiabatic calorimetry	40.96
52.36 K, Crystal 2, Vacuum adiabatic calorimetry	42.15
54.16 K, Crystal 2, Vacuum adiabatic calorimetry	43.42
55 K, Crystal 2	43.96
55.98 K, Crystal 2, Vacuum adiabatic calorimetry	44.6
57.81 K, Crystal 2, Vacuum adiabatic calorimetry	45.76
59.64 K, Crystal 2, Vacuum adiabatic calorimetry	46.96
60 K, Crystal 2	47.18
61.49 K, Crystal 2, Vacuum adiabatic calorimetry	48
63.34 K, Crystal 2, Vacuum adiabatic calorimetry	48.9
65 K, Crystal 2	49.1
65.21 K, Crystal 2, Vacuum adiabatic calorimetry	49.05
67.11 K, Crystal 2, Vacuum adiabatic calorimetry	48.13
69.02 K, Crystal 2, Vacuum adiabatic calorimetry	47.57
70 K, Crystal 2	49.5
70.93 K, Crystal 2, Vacuum adiabatic calorimetry	51.84
72.82 K, Crystal 2, Vacuum adiabatic calorimetry	53.62
74.71 K, Crystal 2, Vacuum adiabatic calorimetry	54.48
75 K, Crystal 2	54.63
76.62 K, Crystal 2, Vacuum adiabatic calorimetry	55.54
78.53 K, Crystal 2, Vacuum adiabatic calorimetry	57.23
80 K, Crystal 2	58.6
80.43 K, Crystal 2, Vacuum adiabatic calorimetry	58.98
82.34 K, Crystal 2, Vacuum adiabatic calorimetry	59.82
84.25 K, Crystal 2, Vacuum adiabatic calorimetry	60.91
85 K, Crystal 2	61.31
86.17 K, Crystal 2, Vacuum adiabatic calorimetry	61.94
88.09 K, Crystal 2, Vacuum adiabatic calorimetry	63.01
90 K, Crystal 2	64.25
90.01 K, Crystal 2, Vacuum adiabatic calorimetry	64.26
91.94 K, Crystal 2, Vacuum adiabatic calorimetry	65.3
93.72 K, Crystal 2, Vacuum adiabatic calorimetry	66.04
93.87 K, Crystal 2, Vacuum adiabatic calorimetry	66.34
93.99 K, Crystal 2, Vacuum adiabatic calorimetry	65.67
95 K, Crystal 2	66.91
95.11 K, Crystal 2, Vacuum adiabatic calorimetry	67.03
95.8 K, Crystal 2, Vacuum adiabatic calorimetry	67.7
97.08 K, Crystal 2, Vacuum adiabatic calorimetry	68.3
97.74 K, Crystal 2, Vacuum adiabatic calorimetry	68.54
99.03 K, Crystal 2, Vacuum adiabatic calorimetry	69.37
99.68 K, Crystal 2, Vacuum adiabatic calorimetry	69.74
100 K, Crystal 2	69.96
100.97 K, Crystal 2, Vacuum adiabatic calorimetry	70.67
102.92 K, Crystal 2, Vacuum adiabatic calorimetry	71.57
104.87 K, Crystal 2, Vacuum adiabatic calorimetry	72.73
105 K, Crystal 2	72.8
106.82 K, Crystal 2, Vacuum adiabatic calorimetry	73.77
108.77 K, Crystal 2, Vacuum adiabatic calorimetry	74.92
110 K, Crystal 2	75.58
110.72 K, Crystal 2, Vacuum adiabatic calorimetry	75.98
112.68 K, Crystal 2, Vacuum adiabatic calorimetry	77.06
114.63 K, Crystal 2, Vacuum adiabatic calorimetry	78.14
116.59 K, Crystal 2, Vacuum adiabatic calorimetry	79.23
118.55 K, Crystal 2, Vacuum adiabatic calorimetry	80.35
120 K, Crystal 2	81.21
120.51 K, Crystal 2, Vacuum adiabatic calorimetry	81.5
122.47 K, Crystal 2, Vacuum adiabatic calorimetry	82.44
124.43 K, Crystal 2, Vacuum adiabatic calorimetry	83.56
126.39 K, Crystal 2, Vacuum adiabatic calorimetry	84.65
128.36 K, Crystal 2, Vacuum adiabatic calorimetry	85.69
130 K, Crystal 2	86.6
130.32 K, Crystal 2, Vacuum adiabatic calorimetry	86.79
131.73 K, Crystal 2, Vacuum adiabatic calorimetry	87.42
132.15 K, Crystal 2, Vacuum adiabatic calorimetry	87.41
132.29 K, Crystal 2, Vacuum adiabatic calorimetry	87.89
133.36 K, Crystal 2, Vacuum adiabatic calorimetry	88.24
134.27 K, Crystal 2, Vacuum adiabatic calorimetry	88.87
135.34 K, Crystal 2, Vacuum adiabatic calorimetry	89.35
136.24 K, Crystal 2, Vacuum adiabatic calorimetry	89.94
137.31 K, Crystal 2, Vacuum adiabatic calorimetry	90.43
139.28 K, Crystal 2, Vacuum adiabatic calorimetry	91.45
140 K, Crystal 2	91.85
141.25 K, Crystal 2, Vacuum adiabatic calorimetry	92.54
143.22 K, Crystal 2, Vacuum adiabatic calorimetry	93.56
145.19 K, Crystal 2, Vacuum adiabatic calorimetry	94.64
147.17 K, Crystal 2, Vacuum adiabatic calorimetry	95.67
149.14 K, Crystal 2, Vacuum adiabatic calorimetry	96.7
150 K, Crystal 2	97.11
151.11 K, Crystal 2, Vacuum adiabatic calorimetry	97.64
153.09 K, Crystal 2, Vacuum adiabatic calorimetry	98.81
155.06 K, Crystal 2, Vacuum adiabatic calorimetry	99.89
157.04 K, Crystal 2, Vacuum adiabatic calorimetry	100.86
159.01 K, Crystal 2, Vacuum adiabatic calorimetry	101.85
160 K, Crystal 2	102.4
160.99 K, Crystal 2, Vacuum adiabatic calorimetry	102.94
162.97 K, Crystal 2, Vacuum adiabatic calorimetry	104.04
164.94 K, Crystal 2, Vacuum adiabatic calorimetry	104.98
166.92 K, Crystal 2, Vacuum adiabatic calorimetry	106.04
168.9 K, Crystal 2, Vacuum adiabatic calorimetry	107.14
170 K, Crystal 2	107.8
170.88 K, Crystal 2, Vacuum adiabatic calorimetry	108.23
172.86 K, Crystal 2, Vacuum adiabatic calorimetry	109.18
174.83 K, Crystal 2, Vacuum adiabatic calorimetry	110.28
176.81 K, Crystal 2, Vacuum adiabatic calorimetry	111.23
178.79 K, Crystal 2, Vacuum adiabatic calorimetry	112.41
180 K, Crystal 2	113.1
180.77 K, Crystal 2, Vacuum adiabatic calorimetry	113.61
182.75 K, Crystal 2, Vacuum adiabatic calorimetry	115.04
184.73 K, Crystal 2, Vacuum adiabatic calorimetry	115.99
186.72 K, Crystal 2, Vacuum adiabatic calorimetry	117.16
188.7 K, Crystal 2, Vacuum adiabatic calorimetry	118.27
190 K, Crystal 2	119.2
190.69 K, Crystal 2, Vacuum adiabatic calorimetry	119.62
192.68 K, Crystal 2, Vacuum adiabatic calorimetry	120.83
194.67 K, Crystal 2, Vacuum adiabatic calorimetry	122.08
196.66 K, Crystal 2, Vacuum adiabatic calorimetry	123.36
198.66 K, Crystal 2, Vacuum adiabatic calorimetry	124.74
200 K, Crystal 2	125.7
200.66 K, Crystal 2, Vacuum adiabatic calorimetry	126.14
202.67 K, Crystal 2, Vacuum adiabatic calorimetry	127.38
204.67 K, Crystal 2, Vacuum adiabatic calorimetry	128.75
206.68 K, Crystal 2, Vacuum adiabatic calorimetry	130.08
208.7 K, Crystal 2, Vacuum adiabatic calorimetry	131.55
210 K, Crystal 2	132.5
210.71 K, Crystal 2, Vacuum adiabatic calorimetry	132.96
212.71 K, Crystal 2, Vacuum adiabatic calorimetry	134.53
214.72 K, Crystal 2, Vacuum adiabatic calorimetry	136.27
216.71 K, Crystal 2, Vacuum adiabatic calorimetry	138.22
220 K, Crystal 2	145
237.42 K, Crystal 1	158.16
239.45 K, Crystal 1	159.61
240 K, Crystal 1	160.1
241.42 K, Crystal 1	161.17
243.4 K, Crystal 1	162.58
245.38 K, Crystal 1	163.87
247.36 K, Crystal 1	165.12
249.33 K, Crystal 1	166.8
250 K, Crystal 1	167.3
251.31 K, Crystal 1	168.24
253.28 K, Crystal 1	169.62
255.26 K, Crystal 1	171.23
257.24 K, Crystal 1	172.85
259.21 K, Crystal 1	174.64
260 K, Crystal 1	175.3
261.18 K, Crystal 1	176.19
263.15 K, Crystal 1	177.74
265.1 K, Crystal 1	179.42
267.05 K, Crystal 1	181.32
268.99 K, Crystal 1	183.18
270 K, Crystal 1	184
270.93 K, Crystal 1	184.74
272.86 K, Crystal 1	186.95
274.77 K, Crystal 1	188.7
276.68 K, Crystal 1	190.91
278.57 K, Crystal 1	192.85
280 K, Crystal 1	194.5
280.46 K, Crystal 1	195.04
282.33 K, Crystal 1	197.11
284.2 K, Crystal 1	199.17
286.05 K, Crystal 1	201.41
287.9 K, Crystal 1	203.48
289.73 K, Crystal 1	205.72
290 K, Crystal 1	206
291.56 K, Crystal 1	207.85
293.37 K, Crystal 1	211.16
295.17 K, Crystal 1	213.27
298.15 K, Crystal 1	214.3
300 K, Crystal 1	216.4
310 K, Crystal 1	227.8
328.08 K, Liquid	267.44
329.23 K, Liquid	268.95
330 K, Liquid	256.6
330.33 K, Liquid	267.74
330.38 K, Liquid	270.44
331.53 K, Liquid	271.12
331.59 K, Liquid	268.59
332.68 K, Liquid	271.99
332.84 K, Liquid	269.67
333.82 K, Liquid	273.19
334.1 K, Liquid	271.2
334.97 K, Liquid	273.8
335.35 K, Liquid	272.07
336.11 K, Liquid	274.9
336.6 K, Liquid	273.27
337.25 K, Liquid	276.23
337.86 K, Liquid	274.28
338.39 K, Liquid	277.22
339.12 K, Liquid	275.37
339.52 K, Liquid	278.09
340 K, Liquid	277.1
340.38 K, Liquid	276.53
340.66 K, Liquid	278.87
341.64 K, Liquid	277.24
341.79 K, Liquid	279.67
342.91 K, Liquid	278.19
342.92 K, Liquid	280.81
344.05 K, Liquid	281.29
344.18 K, Liquid	279.29
345.18 K, Liquid	282
345.46 K, Liquid	280.32
346.75 K, Liquid	281.22
348.04 K, Liquid	282.21
349.35 K, Liquid	283.25
350 K, Liquid	283.8
350.67 K, Liquid	284.33
352.01 K, Liquid	285.41
353.37 K, Liquid	286.57
354.74 K, Liquid	285.99
356.13 K, Liquid	288.33
357.55 K, Liquid	289.27
358.99 K, Liquid	289.94
360 K, Liquid	290.2
360.45 K, Liquid	290.3
361.93 K, Liquid	290.05
363.41 K, Liquid	288.87
364.86 K, Liquid	286.3
366.24 K, Liquid	283
367.51 K, Liquid	296.63
368.71 K, Liquid	295.14
369.9 K, Liquid	295.38
370 K, Liquid	295.4
371.09 K, Liquid	296.21
372.27 K, Liquid	296.96
373.45 K, Liquid	297.66
374.63 K, Liquid	298.2
375.81 K, Liquid	298.87
376.99 K, Liquid	299.38
378.17 K, Liquid	299.76
379.34 K, Liquid	300.28
380.52 K, Liquid	300.53
